Experiments:
HBV GT C = test: Transient-transfection antiviral study in HepG2 cells, GT C; format: cell-based; details: Hepatitis B virus, HepG2, 72 h, read-out: EC50 (mean), HBV GT C
[1] = system: HBV core protein variant I105T; test: microbe, parasite or virus in culture
From the text: (§1) Plasmids containing HBV DNA with rtN236T, rtA181V, rtA181V/N236T, and rtL180M/M204V/N236T were generated using the GT B WT or rtL180M/M204V DNA-containing plasmids and site-directed mutagenesis (Agilent Technologies). A panel of nine different HBV core variants (cW102G, cW102R, cI105V, cI105L, cI105T, cT109S, cT109M, cT109I, and cY118F) was generated, also using the GT B WT DNA-containing plasmid and site-directed mutagenesis. The full-length genome from all plasmids was sequenced to confirm that only the intended nucleotide change(s) was present. Finally, HBV sequences from genotypes A (GenBank accession number AF305422), C (GenBank accession number AB033550), D (GenBank accession number V01460), E (GenBank accession number AB274971), F (GenBank accession number AB036912), G (GenBank accession number AF160501), and H (GenBank accession number AB375159) were gene synthesized as 1.1 times the genome length together with part of the CMV promoter at the 5′ end. The gene-synthesized piece was validated by sequencing and subcloned into the pCMV-HBV plasmid using the restriction sites SalI and NdeI (Genewiz, USA).
(§2) HepG2 cells were seeded in 96-well plates at a density of 20,000 cells/well and allowed to attach overnight at 37°C in 5% CO2. Cells were cotransfected with the HBV plasmids (100 ng/well) and a Gaussia expression plasmid (10 ng/well) (Thermo Scientific) using the Lipofectamine LTX Plus transfection reagent (Life Technologies). Transfection mixtures were removed after overnight incubation, and cells were treated with serially diluted NVR 3-778 at a final dimethyl sulfoxide (DMSO) concentration of 0.5%. After 3 days of incubation with the compound, the supernatants were collected and secreted Gaussia luciferase was measured using a Gaussia Flash luciferase assay kit (Thermo Scientific). Cells were lysed with 0.33% NP-40 (Thermo Scientific), and the cytoplasmic fractions were treated with 2 units of Turbo DNase (Invitrogen) and 10 units of S7 nuclease (Roche) in CutSmart buffer (New England Biolabs) containing 25 µM CaCl2 (G-Biosciences) at 37°C for 60 min, followed by inactivation of the enzymes at 75°C for 15 min. Samples were diluted into lysis buffer (Affymetrix) containing 2.5 µg proteinase K (Affymetrix) at 50°C for 40 min. Intracellular encapsidated HBV DNA was denatured for 30 min at 25°C in 0.2 M NaOH (Sigma) and incubated with HBV DNA probes designed to hybridize to the minus-strand HBV DNA (Affymetrix). The denatured DNA was subsequently detected using a QuantiGene assay kit, according to the branched DNA (bDNA) assay recommended by the manufacturer (Affymetrix).
(§3) To determine percent inhibition, the mean background signal from wells containing only culture medium was subtracted from the signal for all other samples, and percent inhibition at each compound concentration was calculated by normalization to the signals for HepG2.2.15 cells treated with 0.5% DMSO. […] Both CalcuSyn and MacSynergy II (Ann Arbor, MI) software were used to evaluate the effect of compound combinations ([27]). After data analysis at the 95% confidence level, values of synergy or antagonism of <25 µM^2% were defined as insignificant, those between 25 and 50 µM^2% were defined as minor, those between 50 and 100 µM^2% were defined as moderate, and those of >100 µM^2% were defined as strong.

[2] = system: HBV core protein variant T109I; test: microbe, parasite or virus in culture
From the text: as §1, §2, §3

[3] = system: HBV core protein variant T109M; test: microbe, parasite or virus in culture
From the text: as §1, §2, §3

[4] = system: HBV core protein variant Y118F; test: microbe, parasite or virus in culture
From the text: as §1, §2, §3

[5] = molecular target: T1, recombinant HBV core protein (Hepatitis B virus genotype D subtype ayw, UniProt P03146); test: Capsid assembly of recombinant core protein, electron microscopy; format: biochemical; details: 1.2:1 compound-to-core monomer ratio, 0.15 M NaCl, room temperature overnight
T1 construct: Electron microscopy with HBV capsid formed from recombinant HBV core protein was performed as described previously ([5])
Description: FIG 1 NVR 3-778 targets HBV core protein and inhibits viral replication. (A) Chemical structure of NVR 3-778. (B) Purified recombinant HBV core protein in the absence or presence of NVR 3-778. NVR 3-778 was incubated with recombinant core protein (1.2:1 compound-to-core monomer ratio) in buffer containing 0.15 M NaCl at room temperature overnight prior to staining and imaging by electron microscopy. (C, D) The effect of NVR 3-778 on intracellular rcDNA, extracellular HBV DNA, or cell viability (C) or on intracellular encapsidated pgRNA- or extracellular HBV RNA-containing particles (D) was determined upon treating HepG2.2.15 cells with increasing concentrations of NVR 3-778. (E, F) The effect of TFV on intracellular rcDNA, extracellular HBV DNA, or cell viability (E) or on intracellular encapsidated pgRNA- or extracellular HBV RNA-containing particles (F) was determined upon treating HepG2.2.15 cells with increasing concentrations of TFV. Secreted HBV DNA and secreted HBV RNA levels were determined from the supernatant of HepG2.2.15 cells. Intracellular encapsidated rcDNA and pgRNA levels were determined upon NP-40 lysis of cells and by using S7 nuclease to remove nonencapsidated nucleic acids. Cell viability was determined by measuring ATP levels using the CellTiter-Glo assay. […]

HBV = system: HBV; parameters: method as in doi:10.1016/S0168-8278(16)00175-6; details: HBV-infected patients; cited from earlier work
[6] = ratio of mean EC50 for core variant over wild-type HBV

## O=C(Nc1cc(F)c(F)c(F)c1)c1ccc(F)c(S(=O)(=O)N2CCC(O)CC2)c1 [NVR 3-778]
HBV GT C
  EC50: 340 nM
[1]; Hepatitis B virus, HepG2, read-out: EC50, core variant I105T
  EC50: 1500 ± 300 nM
[1]; [6]
  EC50 FC, I105T: 6.5 fold
[2]; Hepatitis B virus, HepG2, read-out: EC50, core variant T109I
  EC50: 150 ± 61 nM
[2]; [6]
  EC50 FC, T109I: 0.65 fold
[3]; Hepatitis B virus, HepG2, read-out: EC50, core variant T109M
  EC50: 280 ± 130 nM
[3]; [6]
  EC50 FC, T109M: 1.2 fold
[4]; Hepatitis B virus, HepG2, read-out: EC50, core variant Y118F
  EC50: 1700 ± 700 nM
[4]; [6]
  EC50 FC, Y118F: 7.4 fold
[5]
  Effect on assembly of purified recombinant core protein: effectively induced the formation of capsid-like particles
HBV
  Antiviral effect, combination with pegIFN versus NVR 3-778 monotherapy: greatest antiviral effect

Source: publication PMC6325219, “Preclinical Characterization of NVR 3-778, a First-in-Class Capsid Assembly Modulator against Hepatitis B Virus” (Antimicrobial Agents and Chemotherapy, 2018)
